One test has as its target T1, JAK2 (Homo sapiens, UniProt O60674).
T1 construct: endogenous in cells; host or cells: Mixed Molt4/Ramos lysate (1:2)
The test is described as follows: Kinobeads assay, JAK2. In kind it is binding. The settings on record: mixed Molt4/Ramos cell lysate, dot blot detection. The method, then: (§1) The compounds of the present invention as described in the previous examples were tested in a Kinobeads™ assay as described for ZAP-70 (WO-A 2007/137867). Briefly, test compounds (at various concentrations) and the affinity matrix with the immobilized aminopyrido-pyrimidine ligand 24 were added to cell lysate aliquots and allowed to bind to the proteins in the lysate sample. After the incubation time the beads with captured proteins were separated from the lysate. Bound proteins were then eluted and the presence of JAK2 and JAK3 was detected and quantified using specific antibodies in a dot blot procedure and the Odyssey infrared detection system. Dose response curves for individual kinases were generated and IC50 values calculated. Kinobeads™ assays for ZAP-70 (WO-A 2007/137867) and for kinase selectivity profiling (WO-A 2006/134056) have been previously described.
(§2) The affinity matrix was washed two times with 15 mL of 1×DP buffer containing 0.2% NP40 (IGEPAL® CA-630, Sigma, #13021) and then resuspended in 1×DP buffer containing 0.2% NP40 (3% beads slurry).
(§3) 5×DP buffer: 250 mM Tris-HCl pH 7.4, 25% Glycerol, 7.5 mM MgCl2, 750 mM NaCl, 5 mM Na3VO4; filter the 5×DP buffer through a 0.22 μm filter and store in aliquots at −80° C. The 5×DP buffer is diluted with H2O to 1×DP buffer containing 1 mM DTT and 25 mM NaF.
(§4) Stock solutions of test compounds were prepared in DMSO. In a 96 well plate 30 μL solution of diluted test compounds at 5 mM in DMSO were prepared. Starting with this solution a 1:3 dilution series (9 steps) was prepared. For control experiments (no test compound) a buffer containing 2% DMSO was used.
(§5) Molt4 cells (ATCC catalogue number CRL-1582) and Ramos cells (ATCC catalogue number CRL-1596) were grown in 1 L Spinner flasks (Integra Biosciences, #182101) in suspension in RPMI 1640 medium (Invitrogen, #21875-034) supplemented with 10% Fetal Bovine Serum (Invitrogen) at a density between 0.15×10^6 and 1.2×10^6 cells/mL. Cells were harvested by centrifugation, washed once with 1×PBS buffer (Invitrogen, #14190-094) and cell pellets were frozen in liquid nitrogen and subsequently stored at −80° C. Cells were homogenized in a Potter S homogenizer in lysis buffer: 50 mM Tris-HCl, 0.8% NP40, 5% glycerol, 150 mM NaCl, 1.5 mM MgCl2, 25 mM NaF, 1 mM sodium vanadate, 1 mM DTT, pH 7.5. One complete EDTA-free tablet (protease inhibitor cocktail, Roche Diagnostics, 1873580) per 25 mL buffer was added. The material was dounced 10 times using a mechanized POTTER S, transferred to 50 mL falcon tubes, incubated for 30 minutes on ice and spun down for 10 minutes at 20,000 g at 4° C. (10,000 rpm in Sorvall SLA600, precooled). The supernatant was transferred to an ultracentrifuge (UZ)-polycarbonate tube (Beckmann, 355654) and spun for 1 hour at 100.000 g at 4° C. (33.500 rpm in Ti50.2, precooled). The supernatant was transferred again to a fresh 50 mL falcon tube, the protein concentration was determined by a Bradford assay (BioRad) and samples containing 50 mg of protein per aliquot were prepared. The samples were immediately used for experiments or frozen in liquid nitrogen and stored frozen at −80° C.
(§6) Cell lysate (approximately 50 mg protein per plate) was thawed in a water bath at room temperature and then stored on ice. To the thawed cell lysate 1×DP 0.8% NP40 buffer containing protease inhibitors (1 tablet for 25 mL buffer; EDTA-free protease inhibitor cocktail; Roche Diagnostics 1873580) was added in order to reach a final protein concentration of 10 mg/mL total protein. The diluted cell lysate was stored on ice. Mixed Molt4/Ramos lysate was prepared by combining one volume of Molt4 lysate and two volumes of Ramos lysate (ratio 1:2).
(§7) To a 96 well filter plate (Multiscreen HTS, BV Filter Plates, Millipore #MSBVN1250) were added per well: 100 μL affinity matrix (3% beads slurry), […], of compound solution, and 50 μL of diluted lysate. […]

In a further test the target is T2, JAK3 (Homo sapiens, UniProt P52333).
T2 construct: endogenous in cells; host or cells: Mixed Molt4/Ramos lysate (1:2)
T2 sequence (P52333 1-1124): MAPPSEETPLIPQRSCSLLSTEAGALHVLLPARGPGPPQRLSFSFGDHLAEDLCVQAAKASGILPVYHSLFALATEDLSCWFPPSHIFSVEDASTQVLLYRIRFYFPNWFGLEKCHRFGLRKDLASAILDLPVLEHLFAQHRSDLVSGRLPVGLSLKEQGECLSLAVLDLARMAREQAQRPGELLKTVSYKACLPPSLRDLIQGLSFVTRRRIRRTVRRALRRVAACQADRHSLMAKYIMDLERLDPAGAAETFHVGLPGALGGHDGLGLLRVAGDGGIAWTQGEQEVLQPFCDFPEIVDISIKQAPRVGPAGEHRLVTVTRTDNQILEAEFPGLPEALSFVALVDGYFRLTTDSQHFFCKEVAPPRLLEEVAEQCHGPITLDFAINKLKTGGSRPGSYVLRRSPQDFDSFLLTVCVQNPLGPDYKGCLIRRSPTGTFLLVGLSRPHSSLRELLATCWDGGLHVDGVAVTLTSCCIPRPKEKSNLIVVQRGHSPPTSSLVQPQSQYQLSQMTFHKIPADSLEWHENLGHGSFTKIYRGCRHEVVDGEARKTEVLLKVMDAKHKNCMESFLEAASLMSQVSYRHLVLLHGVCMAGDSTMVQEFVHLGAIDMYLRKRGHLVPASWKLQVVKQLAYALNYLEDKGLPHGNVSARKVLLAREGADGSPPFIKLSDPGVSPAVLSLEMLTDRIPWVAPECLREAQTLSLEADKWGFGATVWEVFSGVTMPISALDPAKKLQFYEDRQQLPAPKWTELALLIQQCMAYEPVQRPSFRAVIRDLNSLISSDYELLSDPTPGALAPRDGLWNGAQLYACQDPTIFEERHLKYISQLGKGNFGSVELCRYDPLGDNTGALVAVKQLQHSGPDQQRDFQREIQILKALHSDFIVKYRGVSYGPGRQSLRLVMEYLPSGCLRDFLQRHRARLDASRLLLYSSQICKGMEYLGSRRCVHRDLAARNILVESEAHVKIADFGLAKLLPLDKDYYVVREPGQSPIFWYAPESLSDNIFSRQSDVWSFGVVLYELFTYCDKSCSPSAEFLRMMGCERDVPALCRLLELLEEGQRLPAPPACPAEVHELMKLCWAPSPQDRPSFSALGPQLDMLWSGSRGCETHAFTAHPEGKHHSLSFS
The test can be described thus: Kinobeads assay, JAK3. In kind it is binding. The settings on record: mixed Molt4/Ramos cell lysate, dot blot detection. The method, then:
as §1, §2, §3, §4, §5, §6, §7

Drawing on patent publication US9242987B2, “Heterocyclyl pyrazolopyrimidine analogues as JAK inhibitors” (Cellzome Limited, priority 2009, dated 2016), this text covers IC50 for 19 compounds.

T1 sequence (O60674 whole entry): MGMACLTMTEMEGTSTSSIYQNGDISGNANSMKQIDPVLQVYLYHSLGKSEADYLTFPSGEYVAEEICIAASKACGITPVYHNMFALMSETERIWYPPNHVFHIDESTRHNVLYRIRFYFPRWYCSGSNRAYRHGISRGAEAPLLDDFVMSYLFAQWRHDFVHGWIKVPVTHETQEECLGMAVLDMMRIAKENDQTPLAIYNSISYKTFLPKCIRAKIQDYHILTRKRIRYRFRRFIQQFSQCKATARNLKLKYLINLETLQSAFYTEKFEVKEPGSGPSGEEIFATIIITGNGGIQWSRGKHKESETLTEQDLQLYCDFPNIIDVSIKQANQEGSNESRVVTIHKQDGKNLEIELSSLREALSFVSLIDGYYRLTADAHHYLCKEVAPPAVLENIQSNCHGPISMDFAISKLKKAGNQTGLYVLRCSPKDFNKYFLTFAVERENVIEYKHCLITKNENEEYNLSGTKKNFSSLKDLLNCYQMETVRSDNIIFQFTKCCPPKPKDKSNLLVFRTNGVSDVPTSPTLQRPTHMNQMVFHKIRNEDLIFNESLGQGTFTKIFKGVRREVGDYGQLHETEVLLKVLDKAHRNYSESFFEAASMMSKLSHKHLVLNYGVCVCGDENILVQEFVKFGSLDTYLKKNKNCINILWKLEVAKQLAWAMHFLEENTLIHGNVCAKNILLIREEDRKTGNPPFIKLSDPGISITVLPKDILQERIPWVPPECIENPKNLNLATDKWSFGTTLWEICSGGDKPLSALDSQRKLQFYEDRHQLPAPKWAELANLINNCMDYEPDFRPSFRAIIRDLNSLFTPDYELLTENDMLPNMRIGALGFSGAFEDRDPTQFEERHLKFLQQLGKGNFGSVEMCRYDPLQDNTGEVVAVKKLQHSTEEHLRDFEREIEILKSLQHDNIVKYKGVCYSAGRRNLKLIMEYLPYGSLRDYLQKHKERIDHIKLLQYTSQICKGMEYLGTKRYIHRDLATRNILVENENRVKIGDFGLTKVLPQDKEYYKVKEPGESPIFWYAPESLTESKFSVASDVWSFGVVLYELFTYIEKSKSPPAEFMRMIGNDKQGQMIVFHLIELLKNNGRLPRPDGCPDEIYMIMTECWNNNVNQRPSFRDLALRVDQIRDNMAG

Take `CCCn1cc(Nc2ncc3cnn(Cc4ccccc4C#N)c3n2)c(C)n1` [Example 21, 2-((6-(3-Methyl-1-propyl-1H-pyrazol-4-ylamino)-1H-pyrazolo[3,4-d]pyrimidin-1-yl)methyl)benzonitrile]: the results for the IC50 against JAK2 and at JAK3 were no less than 10000 nM and 100 to 1000 nM, respectively.
For the compound `Cc1nn(CC(F)F)cc1Nc1ncc2cnn(Cc3ccccc3C#N)c2n1` [Example 22, 2-((6-(1-(2,2-Difluoroethyl)-3-methyl-1H-pyrazol-4-ylamino)-1H-pyrazolo[3,4-d]pyrimidin-1-yl)methyl)benzonitrile], the IC50 – broadly, the concentration at which inhibition is half-maximal – at JAK2 was no less than 10000 nM; at JAK3 it was less than 100 nM.
As to `COCCn1cc(Nc2ncc3cnn(Cc4ccccc4C#N)c3n2)c(C)n1` [Example 23, 2-((6-(1-(2-methoxyethyl)-3-methyl-1H-pyrazol-4-ylamino)-1H-pyrazolo[3,4-d]pyrimidin-1-yl)methyl)benzonitrile], the IC50 against JAK2 is no less than 10000 nM; on JAK3, 100 to 1000 nM.
Turning to `COc1nn(CC(F)F)cc1Nc1ncc2cnn(Cc3ccccc3C#N)c2n1` [Example 24, 2-((6-(1-(2,2-Difluoroethyl)-3-methoxy-1H-pyrazol-4-ylamino)-1H-pyrazolo[3,4-d]pyrimidin-1-yl)methyl)benzonitrile], the IC50 on JAK2 is no less than 10000 nM; against JAK3, less than 100 nM.
In the same order, the values of `N#Cc1ccccc1Cn1ncc2cnc(Nc3cnn(CCO)c3)nc21` [Example 25, 2-((6-(1-(2-Hydroxyethyl)-1H-pyrazol-4-ylamino)-1H-pyrazolo[3,4-d]pyrimidin-1-yl)methyl)benzonitrile] are 1000 to 10000 nM and less than 100 nM.
For `CC(c1ccccc1F)n1ncc2cnc(Nc3cnn(C)c3)nc21` (centres unmarked) [Example 26, 1-(1-(2-Fluorophenyl)ethyl)-N-(1-methyl-1H-pyrazol-4-yl)-1H-pyrazolo[3,4-d]pyrimidin-6-amine] the same measures were no less than 10000 nM and 100 to 1000 nM.
In the same order, the values of `Cn1cc(Nc2ncc3cnn(Cc4ccccc4Cl)c3n2)cn1` [Example 27, 1-(2-Chlorobenzyl)-N-(1-methyl-1H-pyrazol-4-yl)-1H-pyrazolo[3,4-d]pyrimidin-6-amine] are 1000 to 10000 nM and less than 100 nM.
Turning to `COCCn1cc(Nc2ncc3cnn(Cc4ccccc4F)c3n2)cn1` [Example 28, 1-(2-Fluorobenzyl)-N-(1-(2-methoxyethyl)-1H-pyrazol-4-yl)-1H-pyrazolo[3,4-d]pyrimidin-6-amine], the IC50 against JAK2 is 1000 to 10000 nM; on JAK3, less than 100 nM.
Take `Cn1cc(Nc2ncc3cnn(Cc4c(F)cccc4F)c3n2)cn1` [Example 29, 1-(2,6-Difluorobenzyl)-N-(1-methyl-1H-pyrazol-4-yl)-1H-pyrazolo[3,4-d]pyrimidin-6-amine]: the IC50 against JAK2 was 1000 to 10000 nM; against JAK3, less than 100 nM.
Take `Cn1cc(Nc2ncc3cnn(Cc4cc(F)ccc4F)c3n2)cn1` [Example 30, 1-(2,5-Difluorobenzyl)-N-(1-methyl-1H-pyrazol-4-yl)-1H-pyrazolo[3,4-d]pyrimidin-6-amine]: the IC50 on JAK2 and on JAK3 was less than 100 nM throughout.
For `Cn1cc(Nc2ncc3cnn(Cc4cccc(F)c4F)c3n2)cn1` [Example 31, 1-(2,3-Difluorobenzyl)-N-(1-methyl-1H-pyrazol-4-yl)-1H-pyrazolo[3,4-d]pyrimidin-6-amine], the values for the IC50 against JAK2 and against JAK3 were 1000 to 10000 nM and less than 100 nM, respectively.
In the same order, the values of `OCCn1cc(Nc2ncc3cnn(Cc4cc(F)ccc4F)c3n2)cn1` [Example 32, 2-(4-(1-(2,5-Difluorobenzyl)-1H-pyrazolo[3,4-d]pyrimidin-6-ylamino)-1H-pyrazol-1-yl)ethanol] are less than 100 nM and less than 100 nM.
For `OCCn1cc(Nc2ncc3cnn(Cc4cccc(F)c4F)c3n2)cn1` [Example 33, 2-(4-(1-(2,3-Difluorobenzyl)-1H-pyrazolo[3,4-d]pyrimidin-6-ylamino)-1H-pyrazol-1-yl)ethanol] the same measures were 100 to 1000 nM and less than 100 nM.
Regarding `OCCn1cc(Nc2ncc3cnn(Cc4ccccc4F)c3n2)cn1` [Example 34, 2-(4-(1-(2-Fluorobenzyl)-1H-pyrazolo[3,4-d]pyrimidin-6-ylamino)-1H-pyrazol-1-yl)ethanol], the results for the IC50 against JAK2 and against JAK3 were 100 to 1000 nM and less than 100 nM, respectively.
For `Cn1cc(Nc2ncc3cnn(-c4ccc(S(N)(=O)=O)cc4)c3n2)cn1` [Example 35, 4-(6-(1-Methyl-1H-pyrazol-4-ylamino)-1H-pyrazolo[3,4-d]pyrimidin-1-yl)benzenesulfonamide] the same measures were 1000 to 10000 nM and less than 100 nM.
Turning to `COc1nn(CC(F)F)cc1Nc1ncc2cnn(Cc3ccccc3C(N)=O)c2n1` [Example 36, 2-((6-(1-(2,2-Difluoroethyl)-3-methoxy-1H-pyrazol-4-ylamino)-1H-pyrazolo[3,4-d]pyrimidin-1-yl)methyl)benzamide], the half-maximal inhibitory concentration (IC50) against JAK2 was no less than 10000 nM; against JAK3, 100 to 1000 nM.
Turning to `Cc1c(Nc2ncc3cnn(Cc4ccccc4C#N)c3n2)cnn1C` [Example 37, 2-((6-(1,5-Dimethyl-1H-pyrazol-4-ylamino)-1H-pyrazolo[3,4-d]pyrimidin-1-yl)methyl)benzonitrile], the IC50 was no less than 10000 nM against JAK2 and 100 to 1000 nM at JAK3.
For `COc1nn(CC(F)(F)F)cc1Nc1ncc2cnn(Cc3ccccc3C#N)c2n1` [Example 38] the same measures were no less than 10000 nM and 100 to 1000 nM.
With `N#Cc1ccccc1Cn1ncc2cnc(Nc3cnn(CC(F)F)c3)nc21` [Example 39, 2-((6-(1-(2,2-Difluoroethyl)-1H-pyrazol-4-ylamino)-1H-pyrazolo[3,4-d]pyrimidin-1-yl)methyl)benzonitrile], the figures for the IC50 at JAK2 and against JAK3 were 1000 to 10000 nM and less than 100 nM, respectively.
